Several values for one entry are separate records, joined by “and”; a condition that tells them apart may be missing. Equal values may be shown once.

Results on two molecules are retold here after publication PMC11671014 (PLOS Pathogens, 2024).

Series [1] concerns the target T1, PfTyrRS (Plasmodium falciparum, UniProt Q8IAR7). The experiment in a line: Differential scanning fluorimetry (DSF) of PfTyrRS. Type of series: binding. As for the experimental part:
The effect on ML471 and analogues on the thermal stability of TyrRS enzymes was assayed as previously described. […] SYPRO Orange (Sigma-Aldrich; 5,000X concentrate in DMSO) was added to the reaction mixture at a final concentration of 5X. 25 μL of the sample was added into each well of a 96-well qPCR plate (Applied Biosystems). The plate was sealed and analysed using StepOnePlus Real-Time PCR system (Applied Biosystems). The samples were heated from 20°C to 90°C with a 1% continuous gradient. The thermal unfolding curve was plotted as the first derivative curve of the raw fluorescence values. The melting temperature (Tm), defined as the peak of the first derivative curve, was used to assess the thermal stability of protein-ligand complexes.
On the technique in general: Differential scanning fluorimetry follows unfolding on heating by fluorescence.

Series [2] concerns the target T1, PfTyrRS. As to the kind of experiment: ATP consumption by PfTyrRS (Kinase Glo). The format is biochemical. As to conditions: Inhibition of PfTyrRS (Kinase Glo) IC50, PfTyrRS 25 nM, ATP 10 μM, tyrosine 200 μM, cognate tRNA^Tyr 4.8 μM, 37°C 1 h. As for the experimental part: Consumption of ATP was measured using a luciferase-based assay as per the manufacturer’s instructions (Kinase-Glo Luminescent Kinase Assay, Promega).
A general note: In Kinase-Glo more light means more ATP remaining.

For series [3], the system named is P. falciparum (3D7, ring stage) cultures. As to conditions: read-out: P. falciparum 72-h IC50 (3D7); 3D7, 72 h exposure; ref [16]; cited from earlier work.
For a further series, the system named is HCT116. The conditions noted are these: read-out: HCT116 IC50_72h; 72 h; ref [16]; cited from earlier work.
Series [4] concerns the molecule itself. The experiment in a line: crystal structure; PfTyrRS (10 mg/mL) with 500 uM synthetic Tyr-ML471; sitting drop vapour diffusion at 20°C, 2.25 M sodium malonate pH 6; refined at 1.8 Å.

By Kd is commonly meant the equilibrium constant for the complex coming apart. Higher therefore signals weaker binding. `Nc1ncnc2c1ncn2[C@@H]1O[C@H](COS(N)(=O)=O)[C@@H](O)[C@H]1O` [AMS, adenosine 5’-monosulfamate, reference compound] displayed a Kd on PfTyrRS [1] of 1.3 nM. Moreover, the ΔTm at 50 µM on PfTyrRS [1] (2 h, read-out: PfTyrRS binding (DSF) Delta Tm) was 13.6 ± 0.7 °C. On PfTyrRS [1] (with sulfamate, ATP, tyrosine and tRNA, apo 49.9 ± 0.6), the “PfTyrRS Tm” value was found to be 63.5 ± 0.7 °C. Moreover, the IC50 against PfTyrRS [2] was 51700 nM and 52000 nM; in series [3], 1.8 ± 0.6 nM; in the series with HCT116, 26 nM.

B1: Plasmodium falciparum cytoplasmic tyrosine tRNA synthetase (enzyme, P. falciparum)
chain: METTDTKREEQEIEEKKAQEESKIEDVDKILNDILSISSECIQPDELRVKLLLKRKLICYDGFEPSGRMHIAQGLLKSIIVNKLTSNGCTFIFWIADWFAHLNNKMSGDLKKIKKVGSYFIEVWKSCGMNMENVQFLWASEEINKKPNEYWSLVLDISRSFNINRMKRCLKIMGRSEGEENYCSQILYPCMQCADIFFLNVDICQLGIDQRKVNMLAREYCDIKKIKKKPVILSHGMLPGLLEGQEKMSKSDENSAIFMDDSESDVNRKIKKAYCPPNVIENNPIYAYAKSIIFPSYNEFNLVRKEKNGGDKTYYTLQELEHDYVNGFIHPLDLKDNVAMYINKLLQPVRDHFQNNIEAKNLLNEIKKYKVTK
notes: Plasmodium falciparum cytoplasmic tyrosine tRNA synthetase; also called PfTyrRS; His-PfTyrRS; source: E. coli BL21(DE3), purified (HisTrap HP, TEV cleavage, second HisTrap HP, Superdex 200 gel filtration)
What is called stoichiometry N is the number of molecules, sites or subunits per partner or assembly. In the case of B1, in series [4], the “stoichiometry N” value was 2.
